# Reference: PMC7100484 (Pharmaceutical Research, 2020)
# What was measured:
# [1] = test system: interferon; conditions: in vivo, po; cited from earlier work
# [2] = test system: Influenza B; conditions: mouse, in vivo; cited from earlier work
# [3] = test system: Mengo virus; conditions: mouse, in vivo; cited from earlier work
# [4] = test system: Influenza A/Jap/305; conditions: mouse, in vivo; cited from earlier work
# [5] = microsomes; cited from earlier work
# [6] = test system: Encephalomyocarditis virus (EMCV); conditions: mouse, in vivo; cited from earlier work
# [7] = test system: EMCV; conditions: cited from earlier work
# [8] = test system: Semliki Forest; conditions: mouse, in vivo; cited from earlier work
# [9] = test system: Herpes simplex virus 1; conditions: 250 mg/kg oral doses for 7 days; cited from earlier work
# [10] = test system: cytokines and chemokines; conditions: mouse, in vivo; cited from earlier work
# [11] = test system: respiratory tract infections; conditions: in vivo; cited from earlier work
# [12] = test system: macrophages; conditions: macrophages from naive BALB/c mice; cited from earlier work
# [13] = molecular target: Human Viral RNA Sensor RIG-I (Homo sapiens, UniProt O95786); test: biochemical; type: binding
# Chain of Human Viral RNA Sensor RIG-I (O95786 whole entry): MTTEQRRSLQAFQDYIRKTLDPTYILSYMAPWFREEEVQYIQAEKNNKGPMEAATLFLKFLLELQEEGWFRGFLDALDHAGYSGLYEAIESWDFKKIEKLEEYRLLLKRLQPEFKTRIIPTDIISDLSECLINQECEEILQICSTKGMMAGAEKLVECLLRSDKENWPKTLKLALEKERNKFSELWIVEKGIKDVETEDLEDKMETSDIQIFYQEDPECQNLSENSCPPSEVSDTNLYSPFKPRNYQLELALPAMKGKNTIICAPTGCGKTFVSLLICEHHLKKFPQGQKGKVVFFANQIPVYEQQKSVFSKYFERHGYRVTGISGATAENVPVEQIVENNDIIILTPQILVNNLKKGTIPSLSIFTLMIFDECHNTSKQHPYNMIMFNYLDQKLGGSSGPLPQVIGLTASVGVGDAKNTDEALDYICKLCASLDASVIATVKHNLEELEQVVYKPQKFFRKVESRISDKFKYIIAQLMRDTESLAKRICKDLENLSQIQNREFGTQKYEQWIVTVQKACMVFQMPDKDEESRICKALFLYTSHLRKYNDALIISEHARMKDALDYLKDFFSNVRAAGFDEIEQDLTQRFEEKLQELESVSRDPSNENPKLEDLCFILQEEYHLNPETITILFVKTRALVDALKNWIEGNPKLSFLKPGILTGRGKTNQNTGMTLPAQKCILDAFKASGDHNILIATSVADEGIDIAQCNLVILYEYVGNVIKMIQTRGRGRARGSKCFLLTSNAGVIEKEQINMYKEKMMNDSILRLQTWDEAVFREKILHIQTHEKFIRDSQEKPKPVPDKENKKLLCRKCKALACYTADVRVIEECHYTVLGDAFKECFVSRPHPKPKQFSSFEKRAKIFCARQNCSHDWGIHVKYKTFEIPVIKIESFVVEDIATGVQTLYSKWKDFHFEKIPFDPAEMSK
# [14] = not told; cited from earlier work
# [15] = test system: mitochondrial potential; conditions: cited from earlier work
# [16] = test system: ZIKV; test: microbe, parasite or virus in culture; type: cell-based; conditions: Zika virus
# [17] = test system: fibroblasts; conditions: cited from earlier work
# [18] = test system: MCF7 Cells; test: cells; type: cell-based; conditions: Homo sapiens, MCF7, read-out: IC50, inhibition of total fluorescent intensity/cell of Lysotracker Red
# [19] = test system: West Nile virus; conditions: 10 mg/kg; cited from earlier work
smiles,measurement,setting,value
"CCN(CC)CCOc1ccc2c(c1)C(=O)c1cc(OCCN(CC)CC)ccc1-2 [Tilorone, 2,7-Bis[2-(diethylamino)ethoxy]-9H-fluoren-9-one]",interferon induction,[1],inducer of interferon
same,survival in mice,[2],50% survival in mice at 250 mg/kg single oral dose
same,survival in mice,[3],80% survival in mice at 250 mg/kg single oral dose
same,survival in mice,[4],30% survival in mice at 250 mg/kg single oral dose
same,species-liver microsome stability relationship,[5],"increased in the order of guinea pig, non-human primate, mouse, followed by human"
same,survival in mice,[6],80% survival in mice at 250 mg/kg single oral dose
same,drop of virus titer,[7],1 log drop of virus titer at 25 mg/ml in vitro
same,survival in mice,[8],100% survival in mice at 250 mg/kg single oral dose
same,survival in mice,[9],45% survival in mice at 250 mg/kg oral doses for 7 days
same,"levels of IL-6, IL-10, IL-12 (p40), IL-12 (p70), IL-17, Eotaxin, MCP-1, MIP-1B and RANTES",[10],significantly higher levels
same,prophylactic efficacy,[11],72%
same,"in vivo secretion of IL-6, TNF-a and IL-12",[12],increase in vivo secretion
same,EC50,[13],500 µM
same,permeability (in words),[14],highly permeable
same,mitochondrial potential,[15],rapid increase
same,EC50,[16],5.2 µM
same,ATP-dependent acidification,[17],inhibited the ATP-dependent acidification
same,lysosomal pH,[17],increase lysosomal pH
same,secretion of precursor forms of lysosomal enzymes,[17],enhanced the secretion of precursor forms of lysosomal enzymes
same,storage of sulfated glycosaminoglycans,[17],induce the storage of sulfated glycosaminoglycans
same,IC50,[18],~4 µM
same,lethality protection,[19],46% lethality protection at 10 mg/kg
